Results taken from patent US20250059141A1, “TLR MODULATOR AND USE THEREOF” (DUALITY BIOLOGICS (SUZHOU) CO., LTD., priority 2021, published 2025).

Molecular target: T1, hTLR7 (human Toll-like receptor 7) (Homo sapiens, UniProt Q9NYK1)
T1 construct: host or cells: HEK-Blue hTLR7 (HEK293-derived reporter cells)
T1 sequence (Q9NYK1 27-1049): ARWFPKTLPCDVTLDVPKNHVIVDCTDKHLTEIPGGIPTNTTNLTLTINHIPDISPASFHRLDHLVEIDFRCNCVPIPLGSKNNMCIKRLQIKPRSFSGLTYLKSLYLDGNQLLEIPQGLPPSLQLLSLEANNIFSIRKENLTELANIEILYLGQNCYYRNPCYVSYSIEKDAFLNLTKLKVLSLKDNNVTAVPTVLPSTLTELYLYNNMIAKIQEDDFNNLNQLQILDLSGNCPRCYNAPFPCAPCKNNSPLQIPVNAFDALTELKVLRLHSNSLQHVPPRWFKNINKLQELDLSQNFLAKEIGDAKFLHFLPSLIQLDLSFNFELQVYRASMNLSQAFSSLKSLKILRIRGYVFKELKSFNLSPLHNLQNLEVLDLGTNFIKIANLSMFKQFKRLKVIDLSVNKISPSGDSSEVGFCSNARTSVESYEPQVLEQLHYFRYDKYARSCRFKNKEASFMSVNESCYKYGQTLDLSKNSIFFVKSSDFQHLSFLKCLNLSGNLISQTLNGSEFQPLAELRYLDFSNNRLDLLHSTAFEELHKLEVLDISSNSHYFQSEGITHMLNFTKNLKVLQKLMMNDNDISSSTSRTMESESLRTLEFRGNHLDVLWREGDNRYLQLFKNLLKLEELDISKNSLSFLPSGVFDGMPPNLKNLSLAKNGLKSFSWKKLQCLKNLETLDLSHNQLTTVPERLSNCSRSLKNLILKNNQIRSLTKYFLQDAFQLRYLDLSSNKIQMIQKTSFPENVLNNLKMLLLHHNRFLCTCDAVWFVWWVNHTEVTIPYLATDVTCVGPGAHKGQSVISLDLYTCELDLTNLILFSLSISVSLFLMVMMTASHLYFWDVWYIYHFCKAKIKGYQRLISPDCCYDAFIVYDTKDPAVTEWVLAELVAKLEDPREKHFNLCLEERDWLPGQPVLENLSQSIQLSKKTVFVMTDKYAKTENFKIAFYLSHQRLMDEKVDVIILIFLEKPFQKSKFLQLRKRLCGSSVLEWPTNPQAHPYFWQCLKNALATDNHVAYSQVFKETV
Assay: HEK-Blue hTLR7 reporter assay (QUANTI-Blue, OD650)
Type: cell-based
Details: HEK-Blue hTLR7 cells, 24 h; class symbols; read-out: Reporter assay TLR7 EC50
Experimental: In this example, the agonistic activity of the compounds of the present application on hTLR7 (human Toll-like receptor 7) and hTLR8 (human Toll-like receptor 8) was assessed; the induction activity of the compounds on human PBMCs for TNF-α and IFN-α production was assessed in human PBMCs (human peripheral blood mononuclear cells).
All compounds were formulated in DMSO into 30 mM stock solutions and preserved at 4° C. The reference compound ([…], Cat. No. tlrl-r848-5) was purchased from InvivoGen and formulated into a 5 mg/mL stock solution in DMSO and preserved in a freezer at −20° C. HEK-Blue hTLR7 and HEK-Blue hTLR8 cell lines were purchased from InvivoGen, and human PBMCs were purchased from Shanghai Saily Biotechnology Co., Ltd. (Cat. No. XFB—HP100B).
The major instruments used in this study were multifunctional microplate reader Flexstation III (Molecular Device), Envision (Perkin Elmer), M2e (Molecular Device), and Echo555 (Labcyte). 2.1 Agonistic activity of compounds on hTLR7 (human Toll-like receptor 7) and hTLR8 (human Toll-like receptor 8)
Compound dilution: The compounds of the present application are diluted in DMSO, for example, to about 15 mM. The reference compound was added to the plates in sequence after dilution. The compounds were serially 3-fold diluted to 10 concentrations and added to 96-well plates in duplicate.
For the negative control wells, DMSO was added at 0.2 μL/well, and the reference compound was added to the positive control wells. The final concentration of DMSO was 0.2%.
Cell plating: When an 80% confluence of HEK Blue hTLR7&8 cells in the culture flask was observed under a microscope, the culture medium was discarded, 10 mL of detection medium was added, and the cells were separated by pipetting. The cells were counted on a cytometer and diluted to 500,000 cells/mL. The cells were plated at 100 μL/50,000 cells/well in the 96-well plates containing the compounds. The compounds and cells were co-incubated at 37° C. in a 5% CO2 incubator for 24 hours.
Compound activity detection: 20 μL of cell supernatant was taken from each well and added to a plate containing QUANTI-Blue™ reagent at 180 μL/well. The plate was incubated at 37° C. for 1 hour, and the absorbance at 650 nm (OD650) was measured on the multifunctional microplate reader Flexstation III.
Compound activity data analysis: The OD650 values were analyzed by GraphPad Prism software and fitted to give dose-response curves of the compounds. The EC50 values of compounds were calculated.

Structure (SMILES) | EC50
CCCN(OCc1ccc(N)cc1)C(=O)C1=Cc2ccc(C(=O)Nc3ccc4c(c3)CNC4)cc2N=C(N)C1 [Compound 90] | > 1000 nM
CCCN(OCc1ccc(N)cc1)C(=O)C1=Cc2ccc(C(=O)N3CC(Oc4ccccc4)C3)cc2N=C(N)C1 [Compound 94] | 100 to 1000 nM
CCCN(OCc1ccc(N)cc1)C(=O)C1=Cc2ccc(C(=O)N3CCN(c4ccccc4)CC3)cc2N=C(N)C1 [Compound 97] | > 1000 nM

Now from value to compound:

EC50 | Structure (SMILES)
> 1000 nM | CCCN(OCc1ccc(N)cc1)C(=O)C1=Cc2ccc(C(=O)N3CCN(C)CC3)cc2N=C(N)C1 [Compound 93]
> 1000 nM | CCCN(OCc1ccc(N)cc1)C(=O)C1=Cc2ccc(C(=O)N3CC4(COC4)C3)cc2N=C(N)C1 [Compound 95]
